Data as given in patent US10495630B2, “Methods for the determination of compounds or compositions for the treatment of lipofuscin related diseases and compounds or compositions” (KATAIRO GMBH, priority 2014, dated 2019).
Read-outs that look alike come from different tables or passages of the source. Blank lines part the entries; values can stand above or below the compound they belong to.

Columns and labels:
[1] = test system: human retinal pigment epithelium (RPE) cells; assay: Degradation of lipofuscin in human RPE cells (micrographs after one week); assay type: cell-based; details: test compound alone (SAD 50 μg/ml; cardioxane 10, 50 or 100 μM), one week incubation
Description: To explore the role of the reactive chemical species the human retinal pigment epithelium (RPE) cells were treated with the super oxide anion donor (SAD) soraprazan ((7R,8R,9R)-2,3-Dimethyl-8-hydroxy-7-ethoxy-9-phenyl-7,8,9,10-tetrahydro-imidazo-[1,2-h][1,7]-naphthyridin)—a member of the THPE family—either alone or in combination with a known radical oxygen scavenger, cardioxane.
After growing the hRPE-cells to confluence, the test compounds were added to seven cell cultures and the cells were incubated at 37° C. and 5% CO2. The SAD was added to the cell cultures in a concentration of 50 μg/ml either alone or in combination with cardioxane in a concentration of 10 μM, 50 μM or 100 μM. Additionally, three cell cultures were incubated only with cardioxane in a concentration of 10 μM, 50 μM or 100 μM. As control, one cell culture was grown without test compounds.
After one week of incubation micrographs of the differently incubated RPE cells were taken as shown in FIG. 2A to H. In the original images, lipofuscin in cells is visible as a yellow-gold-orange fluorescent structure, before a blue background. In the grey scale reproduction in FIG. 2 the yellow-gold-orange structure appear light grey (yellow) or dark grey (gold-orange) before a grey background. Areas of degradation of lipofuscin in the hRPE cells appears as bright blue to whitish structures which appear white in the in the grey scale reproduction and are circled in FIG. 2A.
The bright blue structures are only observed in the experimental set up with SAD alone (FIG. 2A).

[2] = test system: RPE cells; details: healthy monkeys, human RPE cells from aged donors, mouse model for Stargardt's Disease; EP 2080513 A1 and literature; cited from earlier work
[3] = test system: Abca4 (−/−) mice; assay: A2E concentration in eyes of Abca4 (−/−) mice after intravitreal injection, HPLCMSMS; assay type: in vivo; details: for response vs control in vivo at 20000 µg/mL: Mus musculus, read-out: % of A2E relative to age matched untreated
Excerpt: […] […] The left eye was not treated and maintained as a control. Untreated eyes of age-matched mice lacking the Abca4 transporter were an additional control.
The concentration in each treated eye was then expressed as a percentage of the average concentration in all untreated eyes in the mice of the same age.
The left eye was not treated and maintained as a control. Untreated eyes of age-matched mice lacking the Abca4 transporter were an additional control.
The left eye was not treated and maintained as a control. Untreated eyes of age-matched mice lacking the Abca4 transporter were an additional control. […] Tryptophan is capable of absorbing and re-radiating light energy, as is riboflavin.
Water solutions were diluted 1:3 with acetonitrile and then sealed in vials for injection. 6 μL of the water acetonitrile solutions were injected onto a 2×50 mm Phenyl derived HPLC column (3 μm) and eluted with a gradient from 20% acetonitrile to 100% acetonitrile over 4 minutes at a flow rate of 500 μL/minute.

[4] = In vitro (cell-free) degradation of A2E in aqueous solution, LCMS; assay type: biochemical; details: for A2E / A2E (% control): A2E 20 μM + verteporfin 25 μM; for A2E (% control): control = A2E non-illuminated
Description: The degradation of N-retinylidene-N-retinylethanolamine (A2E)—component of lipofuscin—in an aqueous solution water was measured in the presence of potential degradation mediators and light illumination.
In a cell-free assay, A2E was dissolved in deionized H2O in a concentration of 20 μM and the solution was divided into two parts. To one part of the A2E solution verteporfin was added in an amount of 25 μM. […]
The amounts of A2E and its epoxides (A2E+O, A2E+2O) remaining were quantified by combined liquid chromatography and mass spectroscopy (LCMS) using the transitions indicated in Table 1.

[5] = test system: melanin A2E particles; assay: Assay for binding to A2E melanin particles; set-up: species or system S. officinalis; details: FIG. 3A; 37° C., 4 h
Description: To study the binding of A2E to melanin, a suspension of 2 mg/ml natural melanin (S. officinalis) is prepared in PBS, pH 7.4. The melanin suspension is brought to 37° C. and sonicated for 15 min to form a uniform suspension. The melanin suspension (0.75 ml) is measured in aliquots into glass test tubes (12×75 mm) under continuous shaking to avoid sedimentation. The solution of A2E (0.75 ml) is added to the above-mentioned melanin aliquots, and the tubes will be incubated in a shaker incubator at 37° C. and 300 rpm for 4 h.
Controls are prepared by incubating A2E in the absence of melanin in incubation medium and by incubating melanin without A2E. Compounds are added to melanin suspension from stock solutions. After incubation, the suspensions are centrifuged at 13,000 rpm for 15 min at room temperature to remove the melanin granules. The supernatant is collected, diluted with acetonitrile and analyzed by an LC-MS/MS method to determine the concentration of […] in the supernatant. The kinetic parameters of binding study, i.e., maximal binding capacity (rmax) and the binding affinity (k) are determined for A2E according to the previously reported method (Cheruvu et al., 2008).
A high percentage of soraprazan and demethoxysoraprazan—about 46% and about 53%, respectively—are found bound to the melanin A2E particles.

[6] = Solubility remark on the test substance; assay type: physicochemical; details: compared with the other tetracycline test substances, 20 mg/ml solution or suspension
[7] = test system: Abca4 (−/−) mice; assay: Verteporfin injection into the vitreous of Abca4 (−/−) mice, micrographs of semi-thin sections; assay type: in vivo; details: 2 μl intravitreal, 12 month old mice, four weeks after injection, normal daylight
Description: 2 μl of a Verteporfin solution were injected into the vitreous of eyes from Abca4 (−/−) mice (12 month old) which lack the Abca4 transporter in the disk membranes of photoreceptors. Four weeks after injection the eyes of the mice were enucleated, embedded into the epoxy resin Epon™ and cut into semi-thin sections. As a control eyes of age-matched untreated mice lacking the Abca4 transporter were prepared in the same way. […] The RPE cell layer is marked by arrows in the Figure. Comparing the micrographs of the semi-thin section of eyes of untreated (FIG. 5a) and treated (FIG. 5b) mice the cytoplasm of the RPE cells of untreated mice appears much denser due to the targeting of confluent lipofuscin components. […] In treated eyes predominately melanin granules remained in the cytoplasm of RPE cells.

[8] = test system: patient with putative dry AMD; assay: Clinical use of the photosensitizer to treat AMD, blue light laser retinal fluorescence; assay type: in vivo; details: intravenous 6 mg/m^2 or ca 4 μg intravitreal; days 7, 14 and 28 versus pre-treatment
Description: A patient with putative dry AMD is examined and baseline retinal fluorescence is determined using the blue laser imaging device (Heidelberg engineering). The patient is subject to an intravenous dose of 6 mg/m^2 verteporf in by means of infusion of 30 ml over 10 minutes. An alternative to intravenous application is the direct intravitreal application of verteporf in. In this case, ca 4 μg of verteporfin is administered to an affected single eye. Fluorescence after 1, 2 and 4 weeks is compared with fluorescence at baseline. The eyes are treated alternately.
In the standard verteporfin treatment, fifteen minutes after the start of the infusion, a laser light at 689 nm delivered 50 J/cm^2 by application of an intensity of 600 mW/cm^2 over 83 seconds using a spot size with a diameter 1000 μm. […] After administration of verteporfin to a patient an exposure of the eyes of the patient to mild indoor light of about 500 lux. Alternatively, low filtering sunglasses can be used as a means to maintain an exposure of the eyes of the patient to 500 lux when outdoors. The exposure should be maintained for a period of at least 6 h per day.
Blue light laser retinal fluorescence is measured at days 7, 14 and 28 after treatment and compared with pre-treatment values. Specific reductions of retinal fluorescence>1-20% are on post-treatment examination. […]

[9] = test system: ARPE-19, a human RPE cell line that lacks melanin and lipofuscin; assay: Cellular verteporfin uptake in ARPE-19 cells; assay type: in vitro ADME; details: for Verteporfin in the cells after incubation: medium with 278 nM Verteporfin
Description: (§1) For testing factors influencing the cellular uptake of verteporfin to two cell types used:
ARPE-19, a human RPE cell line that lacks melanin and lipofuscin
(§2) The cells were treated with 200 μl of a culture medium that contained 278 nM Verteporfin for the indicated time, the culture medium was discarded, the cells trypsinized, resuspended in 500 μl medium and counted.

[10] = test system: HuRPE, RPE cells isolated from human donor eyes that contain melanin and lipofuscin; assay: Cellular verteporfin uptake in HuRPE cells; assay type: in vitro ADME; details: for Verteporfin in the cells after incubation: medium with 278 nM Verteporfin
Description: as §1
HuRPE, RPE cells isolated from human donor eyes that contain melanin and lipofuscin
as §2

[11] = redox active small molecules and chelator, intravitreal 2 μl of 20 mg/ml, 16 hours after injection
[12] = dyes and porphyrins, intravitreal 2 μl of 2 mg/mL, one week after injection

Degradation of the lipofuscin component A2E in cell free systems ([4]; cell free, in solution under illumination by visible light): degraded
Proportion of compound bound to the melanin A2E particles after incubation [5]: about 46%
Compound: COCCO[C@@H]1c2ccn3c(C)c(C)nc3c2N[C@H](c2ccccc2)[C@H]1O [Soraprazan, (7R,8R,9R)-2,3-Dimethyl-8-hydroxy-7-(2-methoxyethoxy)-9-phenyl-7,8,9,10-tetrahydro-imidazo[1,2-h] [1,7]naphthyridine]
Degradation / removal of lipofuscin in hRPE cells [1]: removal of lipofuscin
Removal of natural lipofuscin from RPE cells [2]: remove natural lipofuscin from RPE cells
response vs control in vivo at 20000 µg/mL [3, 11]: 61%
Concentration A2E (μM) in the treated eye [3, 11]: 31 µM

Solubility [6]: notably less soluble
Compound: CN(C)[C@@H]1C(O)=C(C(N)=O)C(=O)[C@@]2(O)C(O)=C3C(=O)c4c(O)ccc(Cl)c4[C@@H](O)[C@H]3C[C@@H]12 [Demeclocycline]
response vs control in vivo at 20000 µg/mL ([3]; 168 h, tetracycline antibiotics, intravitreal 2 μl of 20 mg/ml, one week after injection): 89%
Concentration A2E (μM) in the treated eye ([3]; tetracycline antibiotics, intravitreal 2 μl of 20 mg/ml, one week after injection): 37 µM

Verteporfin in the cells after incubation ([9]; ARPE-19, 1 h): 159 nM
Verteporfin in the cells after incubation ([9]; ARPE-19, 18 h): 351 nM
Increase of verteporfin concentration in the cells after 18 h ([9]; ARPE-19, 18 h versus 1 h): about two-fold
Verteporfin in the cells after incubation ([10]; HuRPE, 1 h): 339 nM
Verteporfin in the cells after incubation ([10]; HuRPE, 18 h): 1206 nM
Increase of verteporfin concentration in the cells after 18 h ([10]; HuRPE, 18 h versus 1 h): about four-fold
Concentration of verteporfin in HuRPE compared to ARPE-19 ([10]; after 1 h of incubation): more than two-fold
Compound: verteporfin
Removal of lipofuscin from the cytoplasm of RPE cells [7]: substantial amounts of lipofuscin and melanolipofuscin were removed from the cytoplasm of RPE cells
Specific reductions of retinal fluorescence [8]: 1-20%
% of A2E relative to age matched untreated [3, 12]: 90%
Concentration A2E (μM) in the treated eye [3, 12]: 27 µM
A2E ([4]; 689 nm, 83 s): 14.338 µM
A2E (% control) ([4]; 689 nm, 83 s): 44 % control
A2E ([4]; non-illuminated, 5 min): 28.864 µM
A2E (% control) ([4]; non-illuminated, 5 min): 89 % control
A2E ([4]; white light, 5 min): 1.295 µM
A2E (% control) ([4]; white light, 5 min): 4 % control
Proportion of compound bound to the melanin A2E particles after incubation [5]: bind to the A2E melanin particles although to a lower percentage
